According to paper PMC12801355, “Peptide Amphiphiles Hitchhike on Endogenous Biomolecules for Enhanced Cancer Imaging and Therapy” (Advanced Materials (Deerfield Beach, Fla.), 2025):
Where a SMILES comes first, the peptide text is derived from it. The star is where a group is joined. Palmitoyl = CCCCCCCCCCCCCCCC(=O)*

Assays:
4T1 cells = test: Uptake of SA‐E in the presence of inhibitors; type: cell-based, mouse; conditions: inhibitor 10 µM, 20 min pre‐incubation, Cy5 SA‐E 20 µM, FBS free media
Experimental: To explore the effect of serum proteins and different inhibitors on the cellular uptake of SA‐E, 4T1 cells were grown to near confluency in 96 well plates, as described above. For cellular uptake mechanism studies, the growth media (RPMI containing 10% FBS) was exchanged for 100 µL of FBS free media, then returned to the incubator. Inhibitors (brefeldin A, bromsulphalein, chlorpromazine hydrochloride, cis‐ACBD, filipin, heparin, methyl‐β‐cyclodextrin, or wortmannin) were made in FBS free media at a concentration of 1 mM. Then, 1 µL of media containing inhibitors was added to wells, so that the final drug concentration in each well was 10 µM. The plate was returned to the incubator for 20 min. After incubation, Cy5 conjugated SA‐E was added to all wells such that the final concentration was 20 µM per well. The plate was returned to the incubator for 30 min. Wells were aspirated and washed with PBS as above. 100 µL of FBS free media was added, and the plate was returned to the incubator for 1 h. Finally, Hoechst staining and fluorescence imaging were performed using a Leica Thunder DMi8 fluorescent microscope, as described above.

human plasma proteins [1] = biological target: T1, human plasma proteins (Homo sapiens, UniProt P02654); test: Mass spectrometry of proteins pulled down with biotinylated SA‐E (SA‐Eb) from human plasma; type: binding
T1 construct: incubated with 50% pooled human plasma at 37 °C for 2 h; from tissue; host or cells: pooled human plasma (50%)
T1 sequence (P02654 27-83): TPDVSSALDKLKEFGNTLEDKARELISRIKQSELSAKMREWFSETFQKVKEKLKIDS
Experimental: (§1) Samples were prepared for mass spectrometry analysis via a pull‐down of a biotinylated version of the SA‐E probe (SA‐Eb, 100 µM) incubated with 50% pooled human plasma at 37 °C for 2 h. Before incubation with the SA‐Eb‐plasma mixture, magnetic streptavidin‐coated beads (Dynabeads MyOne Streptavidin T1, Invitrogen, 65601) were washed with PBS (10 mM, pH 7.4) then blocked with 1% casein equal to the total initial volume of beads for 15 min at room temperature. After blocking, beads were washed again with PBS. Beads were then combined with SA‐Eb‐plasma solution, 25 µL beads to 200 µL mixture. This mixture was then incubated at room temperature for 30 min. After incubation, the remaining solution was removed, and the beads were washed five times with PBS. Bound SA‐Eb was eluted from beads in 30 µL 0.5% Triton X‐100 solution. Magnetic beads were then removed, and the elution was collected for analysis. For plasma control, the incubation with SA‐Eb step was skipped, and 50% plasma in PBS was incubated with beads and washed and eluted using the same method as the SA‐Eb‐plasma solution. The elution solutions were then analyzed by the Proteomics Shared Resource facility at Oregon Health & Science University (See Supporting Information for details).
(§2) Sample Preparation. Eluted plasma samples were dried down and stored at -80°C. Samples were thawed at room temperature for 10 min, and 75 µL of SDS protein extraction buffer (5% SDS, 50 mM […]; TEAB) was added to each sample. Samples were shaken in a Thermo mixer for 10 minutes at room temperature and centrifuged at 10,000 g for 5 min. Each sample was transferred from a 0.5 mL tube to a 1.5 mL LoBind centrifuge tube. Samples were reduced by adding 3.4 µL of 0.5 M dithiothreitol and incubated at 95 °C for 10 min. Samples were alkylated by the addition of 6.8 µL of 0.5 M iodoacetamide and were incubated at room temperature for 30 min in the dark. Samples were then acidified by the addition of 8.52 µL of 12% phosphoric acid, and 562 µL of SDS protein binding buffer (90% methanol, 100 mM TEAB, pH 7.51). Samples were transferred 165 µL at a time to S-trap micro columns (Protifi, Farmingdale, NY) and inserted into 1.5 mL of polypropylene tubes. Samples were centrifuged at 4,000 g for 3 min between each addition of the sample. S-trap columns were washed 6 times using 150 µL of 90% methanol containing 100 mM of TEAB followed by centrifugation at 4,000g for 3 min between each wash step. S-trap columns containing the bound sample proteins were transferred to 1.5 mL LoBind centrifuge tubes and 40 µL of 80 ng/µL sequencing grade modified trypsin (Pierce TM Trypsin Protease MS-Grade, XG348166) in 50 mM TEAB was added. S-trap columns were loosely capped, and digestion was performed at 37°C overnight in a humidified chamber.
(§3) After completion of digestion, peptides were eluted by sequential addition of 40 µL of TEAB, 40 µL of 0.2% aqueous formic acid, and 40 µl of 50% acetonitrile, 0.2% formic acid, with centrifugation at 4,000 g for 4 min between each addition of elution buffer. The elution fractions were combined and then dried by vacuum centrifugation. Samples were reconstituted by adding 20 µL of 5% formic acid, shaking at 37 °C, and spinning at 15,000 g for 5 min. The supernatant of each sample was transferred to an auto-sample vial.
(§4) Data analysis. Mass spectrometry data from all samples were processed using COMET/PAWS against Uniprot_Human_database. Comet (v. 2016.01, rev. 3)^8 was used to search MS2 Spectra against a January 2023 version of canonical FASTA protein database containing human uniprot sequences, and concatenated sequence-reversed entries to estimate error thresholds and 179 common contaminant sequences and their reversed forms. The database processing was performed using python scripts available at https://github.com/pwilmart/fasta_utilities.git and Comet results were processed using the PAW pipeline2 from https://github.com/pwilmart/PAW_pipeline.git.

human plasma proteins [2] = biological target: T2, human plasma proteins (Homo sapiens, UniProt P06727); test: as above; type: binding
T2 construct: incubated with 50% pooled human plasma at 37 °C for 2 h; from tissue; host or cells: pooled human plasma (50%)
T2 sequence (P06727 21-396): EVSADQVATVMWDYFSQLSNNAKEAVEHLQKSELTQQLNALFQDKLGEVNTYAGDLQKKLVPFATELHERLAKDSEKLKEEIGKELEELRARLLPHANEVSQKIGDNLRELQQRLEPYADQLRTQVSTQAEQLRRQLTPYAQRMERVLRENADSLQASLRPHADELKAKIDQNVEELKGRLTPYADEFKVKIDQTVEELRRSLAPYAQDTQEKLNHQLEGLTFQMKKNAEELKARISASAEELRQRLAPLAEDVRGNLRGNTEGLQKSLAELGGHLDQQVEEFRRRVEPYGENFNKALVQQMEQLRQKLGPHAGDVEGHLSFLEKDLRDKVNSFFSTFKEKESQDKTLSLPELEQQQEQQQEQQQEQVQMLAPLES
Experimental: as §1, §2, §3, §4

human plasma proteins [3] = biological target: T3, human plasma proteins (Homo sapiens, UniProt P04114); test: as above; type: binding
T3 construct: incubated with 50% pooled human plasma at 37 °C for 2 h; from tissue; host or cells: pooled human plasma (50%)
T3 sequence (P04114 28-4563): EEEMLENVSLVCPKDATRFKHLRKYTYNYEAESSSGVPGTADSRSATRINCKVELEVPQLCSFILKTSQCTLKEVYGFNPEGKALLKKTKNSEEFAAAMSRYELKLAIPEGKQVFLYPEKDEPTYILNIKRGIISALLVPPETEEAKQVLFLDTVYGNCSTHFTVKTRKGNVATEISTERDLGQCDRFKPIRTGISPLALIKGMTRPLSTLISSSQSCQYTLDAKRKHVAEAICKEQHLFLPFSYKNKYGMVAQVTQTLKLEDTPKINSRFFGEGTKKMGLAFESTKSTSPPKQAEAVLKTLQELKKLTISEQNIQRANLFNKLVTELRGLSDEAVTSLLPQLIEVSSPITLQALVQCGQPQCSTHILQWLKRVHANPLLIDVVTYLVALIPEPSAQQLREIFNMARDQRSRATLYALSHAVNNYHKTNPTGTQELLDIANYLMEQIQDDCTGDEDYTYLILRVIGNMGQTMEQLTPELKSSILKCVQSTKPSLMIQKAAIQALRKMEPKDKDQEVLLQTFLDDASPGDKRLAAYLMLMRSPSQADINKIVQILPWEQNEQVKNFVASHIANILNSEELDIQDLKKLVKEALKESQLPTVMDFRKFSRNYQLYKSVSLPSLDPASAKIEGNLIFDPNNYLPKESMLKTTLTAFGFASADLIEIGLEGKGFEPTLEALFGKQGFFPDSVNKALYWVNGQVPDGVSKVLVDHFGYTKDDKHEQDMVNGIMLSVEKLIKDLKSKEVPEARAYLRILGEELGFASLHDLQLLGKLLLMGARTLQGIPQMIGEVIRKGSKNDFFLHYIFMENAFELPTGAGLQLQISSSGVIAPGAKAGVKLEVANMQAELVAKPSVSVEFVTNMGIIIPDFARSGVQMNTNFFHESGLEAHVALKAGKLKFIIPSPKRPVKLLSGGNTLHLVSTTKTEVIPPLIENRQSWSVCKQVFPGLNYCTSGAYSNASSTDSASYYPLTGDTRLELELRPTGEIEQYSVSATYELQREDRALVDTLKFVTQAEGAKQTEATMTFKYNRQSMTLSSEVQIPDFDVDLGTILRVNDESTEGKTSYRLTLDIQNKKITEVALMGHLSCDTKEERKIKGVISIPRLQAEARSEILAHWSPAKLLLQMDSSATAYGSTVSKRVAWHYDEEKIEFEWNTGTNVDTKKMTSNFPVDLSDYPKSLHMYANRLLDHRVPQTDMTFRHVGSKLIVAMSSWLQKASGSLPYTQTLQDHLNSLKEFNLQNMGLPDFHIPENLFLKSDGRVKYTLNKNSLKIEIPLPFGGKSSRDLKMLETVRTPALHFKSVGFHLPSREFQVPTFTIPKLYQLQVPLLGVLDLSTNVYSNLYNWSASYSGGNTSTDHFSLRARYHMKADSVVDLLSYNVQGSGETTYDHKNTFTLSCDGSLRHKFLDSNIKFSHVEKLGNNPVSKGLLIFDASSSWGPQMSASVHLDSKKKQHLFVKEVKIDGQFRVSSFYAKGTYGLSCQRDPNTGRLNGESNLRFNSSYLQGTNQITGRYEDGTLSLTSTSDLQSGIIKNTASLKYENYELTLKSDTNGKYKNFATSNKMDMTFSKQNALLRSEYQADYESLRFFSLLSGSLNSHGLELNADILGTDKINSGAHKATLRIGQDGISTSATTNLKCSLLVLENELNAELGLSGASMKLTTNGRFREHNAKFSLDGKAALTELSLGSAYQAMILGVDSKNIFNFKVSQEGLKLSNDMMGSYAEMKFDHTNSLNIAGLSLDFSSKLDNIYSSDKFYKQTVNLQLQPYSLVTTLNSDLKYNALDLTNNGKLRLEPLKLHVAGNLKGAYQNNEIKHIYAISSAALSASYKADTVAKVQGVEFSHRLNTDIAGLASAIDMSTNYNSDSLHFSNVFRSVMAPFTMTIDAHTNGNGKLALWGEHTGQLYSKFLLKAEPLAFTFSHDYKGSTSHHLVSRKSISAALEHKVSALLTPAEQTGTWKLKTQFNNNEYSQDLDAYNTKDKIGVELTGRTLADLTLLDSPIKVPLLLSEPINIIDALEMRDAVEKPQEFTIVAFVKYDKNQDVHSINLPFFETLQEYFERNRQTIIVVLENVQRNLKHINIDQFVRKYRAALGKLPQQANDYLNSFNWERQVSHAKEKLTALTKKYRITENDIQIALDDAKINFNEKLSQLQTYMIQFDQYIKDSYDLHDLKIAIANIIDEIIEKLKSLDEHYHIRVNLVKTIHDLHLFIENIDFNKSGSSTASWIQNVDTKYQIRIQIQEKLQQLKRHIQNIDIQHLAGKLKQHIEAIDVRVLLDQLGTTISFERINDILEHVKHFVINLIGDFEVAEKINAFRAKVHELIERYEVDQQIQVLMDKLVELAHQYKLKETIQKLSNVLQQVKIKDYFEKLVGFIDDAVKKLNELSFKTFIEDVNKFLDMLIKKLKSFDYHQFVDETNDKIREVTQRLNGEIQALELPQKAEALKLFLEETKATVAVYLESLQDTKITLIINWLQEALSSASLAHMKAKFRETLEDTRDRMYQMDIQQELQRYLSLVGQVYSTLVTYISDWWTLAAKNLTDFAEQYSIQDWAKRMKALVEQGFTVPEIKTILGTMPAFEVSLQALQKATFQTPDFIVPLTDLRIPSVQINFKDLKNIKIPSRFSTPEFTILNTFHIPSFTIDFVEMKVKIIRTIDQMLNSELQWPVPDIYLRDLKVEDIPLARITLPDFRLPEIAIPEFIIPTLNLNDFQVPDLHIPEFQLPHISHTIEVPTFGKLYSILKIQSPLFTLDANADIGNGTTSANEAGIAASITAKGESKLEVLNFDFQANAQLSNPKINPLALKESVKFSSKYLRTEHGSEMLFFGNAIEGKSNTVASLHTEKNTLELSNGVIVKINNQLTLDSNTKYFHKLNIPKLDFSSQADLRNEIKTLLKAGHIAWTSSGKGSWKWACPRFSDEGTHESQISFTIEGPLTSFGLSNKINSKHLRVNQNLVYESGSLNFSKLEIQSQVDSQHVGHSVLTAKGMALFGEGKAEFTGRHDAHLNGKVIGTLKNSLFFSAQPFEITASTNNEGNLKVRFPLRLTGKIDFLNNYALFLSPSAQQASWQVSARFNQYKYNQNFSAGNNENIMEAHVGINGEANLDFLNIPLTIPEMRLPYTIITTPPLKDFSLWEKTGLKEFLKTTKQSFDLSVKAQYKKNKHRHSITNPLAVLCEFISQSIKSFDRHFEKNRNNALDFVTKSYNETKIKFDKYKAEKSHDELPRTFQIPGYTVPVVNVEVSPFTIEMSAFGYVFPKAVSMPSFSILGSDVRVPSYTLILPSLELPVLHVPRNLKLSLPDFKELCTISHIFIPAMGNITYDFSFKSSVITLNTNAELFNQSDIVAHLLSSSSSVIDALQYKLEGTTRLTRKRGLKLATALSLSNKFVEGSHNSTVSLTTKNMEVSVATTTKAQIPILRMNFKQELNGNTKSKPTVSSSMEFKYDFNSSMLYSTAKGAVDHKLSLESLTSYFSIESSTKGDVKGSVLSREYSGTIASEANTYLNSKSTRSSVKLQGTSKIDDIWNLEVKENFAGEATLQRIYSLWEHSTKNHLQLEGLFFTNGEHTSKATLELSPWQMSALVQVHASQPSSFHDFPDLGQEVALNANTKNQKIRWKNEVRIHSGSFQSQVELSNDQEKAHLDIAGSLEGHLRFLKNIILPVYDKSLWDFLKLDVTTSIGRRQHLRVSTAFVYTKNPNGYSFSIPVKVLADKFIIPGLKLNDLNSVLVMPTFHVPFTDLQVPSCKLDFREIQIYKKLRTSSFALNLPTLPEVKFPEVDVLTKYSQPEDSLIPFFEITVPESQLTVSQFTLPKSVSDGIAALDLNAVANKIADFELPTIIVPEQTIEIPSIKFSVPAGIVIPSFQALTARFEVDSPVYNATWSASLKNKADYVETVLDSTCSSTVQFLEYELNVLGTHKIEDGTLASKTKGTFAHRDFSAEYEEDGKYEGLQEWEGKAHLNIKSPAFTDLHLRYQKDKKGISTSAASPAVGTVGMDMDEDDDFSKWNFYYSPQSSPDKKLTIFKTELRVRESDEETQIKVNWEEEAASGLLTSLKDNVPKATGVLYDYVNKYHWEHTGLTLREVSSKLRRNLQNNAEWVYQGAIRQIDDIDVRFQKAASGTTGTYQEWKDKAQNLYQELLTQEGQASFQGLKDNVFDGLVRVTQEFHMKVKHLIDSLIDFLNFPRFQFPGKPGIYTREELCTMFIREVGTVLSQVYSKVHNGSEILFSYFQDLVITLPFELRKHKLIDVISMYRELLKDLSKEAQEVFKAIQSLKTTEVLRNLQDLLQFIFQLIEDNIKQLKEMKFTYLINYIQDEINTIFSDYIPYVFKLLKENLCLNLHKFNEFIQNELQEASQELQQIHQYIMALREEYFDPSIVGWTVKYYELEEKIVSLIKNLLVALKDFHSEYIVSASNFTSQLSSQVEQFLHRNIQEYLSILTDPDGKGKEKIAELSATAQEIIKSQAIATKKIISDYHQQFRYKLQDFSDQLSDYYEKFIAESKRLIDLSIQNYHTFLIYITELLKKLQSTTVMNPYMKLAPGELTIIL
Experimental: as §1, §2, §3, §4

human plasma proteins [4] = biological target: T4, human plasma proteins (Homo sapiens, UniProt P02768); test: as above; type: binding; conditions: for Total Counts, Albumin: pull‐down with biotinylated SA-E
T4 construct: incubated with 50% pooled human plasma at 37 °C for 2 h; from tissue; host or cells: pooled human plasma (50%)
T4 sequence (P02768 25-609): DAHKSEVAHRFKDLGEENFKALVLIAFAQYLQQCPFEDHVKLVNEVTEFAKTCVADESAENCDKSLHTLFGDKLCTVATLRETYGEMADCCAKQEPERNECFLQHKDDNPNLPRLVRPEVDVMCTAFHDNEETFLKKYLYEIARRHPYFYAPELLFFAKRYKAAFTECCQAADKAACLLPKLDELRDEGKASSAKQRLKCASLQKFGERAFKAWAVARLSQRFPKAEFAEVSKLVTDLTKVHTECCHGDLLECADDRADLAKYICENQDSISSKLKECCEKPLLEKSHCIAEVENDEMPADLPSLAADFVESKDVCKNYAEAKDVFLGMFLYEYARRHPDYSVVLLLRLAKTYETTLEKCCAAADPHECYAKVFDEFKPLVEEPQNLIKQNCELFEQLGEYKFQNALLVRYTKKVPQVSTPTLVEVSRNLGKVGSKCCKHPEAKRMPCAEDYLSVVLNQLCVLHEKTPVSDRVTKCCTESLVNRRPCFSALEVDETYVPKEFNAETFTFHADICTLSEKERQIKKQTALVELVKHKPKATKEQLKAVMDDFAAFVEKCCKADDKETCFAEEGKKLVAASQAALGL
Experimental: as §1, §2, §3, §4

`CCCCCCCCCCCCCCCC(=O)NCC(=O)NCC(=O)NCC(=O)N[C@@H](Cc1c[nH]cn1)C(=O)N[C@@H](C)C(=O)N[C@@H](C)C(=O)N[C@@H](CC(N)=O)C(=O)NCC(=O)N[C@@H](CCC(=O)O)C(=O)N[C@@H](CCC(=O)O)C(=O)N[C@@H](CS)C(=O)N[C@@H](CCC(=O)O)C(=O)O` [SA‐E] (Palmitoyl-GGGHAANGEECE-OH) was tested, and the “cellular uptake with Filipin” value (4T1 cells) was “decreased SA‐E uptake to a lesser extent”, the “cellular uptake with Methyl‐β‐cyclodextrin” value (4T1 cells) was “Significant decreases” and the “cellular uptake with Wortmannin” value (4T1 cells) was “Significant decreases”. For the same molecule, the “cellular uptake with bromosulfalein (BSP)” value (4T1 cells) was “no change”, the “cellular uptake with cis‐ACBD” value (4T1 cells) was “no change” and the “Percentage, Apolipoprotein C-I” value (human plasma proteins [1]; replicate 1) was 0.2%. The “Total Counts, Apolipoprotein C-I” value (human plasma proteins [1]; replicate 1) was 6, the “Percentage, Apolipoprotein C-I” value (human plasma proteins [1]; replicate 2) was 0.3% and the “Total Counts, Apolipoprotein C-I” value (human plasma proteins [1]; replicate 2) was 9. For the same molecule, the “Percentage, Apolipoprotein A-IV” value (human plasma proteins [2]; replicate 1) was 1.1%, the “Total Counts, Apolipoprotein A-IV” value (human plasma proteins [2]; replicate 1) was 39 and the “Percentage, Apolipoprotein A-IV” value (human plasma proteins [2]; replicate 2) was 0.6%. The “Total Counts, Apolipoprotein A-IV” value (human plasma proteins [2]; replicate 2) was 16, the “Percentage, Apolipoprotein B-100” value (human plasma proteins [3]; replicate 1) was 4.7% and the “Total Counts, Apolipoprotein B-100” value (human plasma proteins [3]; replicate 1) was 166. For the same molecule, the “Percentage, Apolipoprotein B-100” value (human plasma proteins [3]; replicate 2) was 6.0%, the “Total Counts, Apolipoprotein B-100” value (human plasma proteins [3]; replicate 2) was 170 and the “Total Counts, Albumin” value (human plasma proteins [4]; replicate 1) was 1215. For the same molecule, the “Total Counts, Albumin” value (human plasma proteins [4]; replicate 2) was 923, the “Percentage, Albumin” value (human plasma proteins [4]; replicate 1) was 34.0% and the “Percentage, Albumin” value (human plasma proteins [4]; replicate 2) was 32.5%.
